{
  "source": "patent US9387197B2",
  "about": "“Methods for treating conditions such as dystonia and post-stroke spasticity with clonidine” (Warsaw Orthopedic, Inc., priority 2008, dated 2016)",
  "tested_on": "Rat Chronic Constriction Injury Model",
  "details": "FIG. 4; days 8-64",
  "protocol": "A 2-month chronic constriction injury (CCI) model of neuropathic pain was used to evaluate different formulations of clonidine encapsulated in bioerodible polymers compared to clonidine given subcutaneously (SC). Different formulations as provided in Table 5 below were evaluated for reducing pain-associated behaviors: Thermal paw withdrawal latency was evaluated at baseline, 7, 14, 21, 28, 35, 42, 49, 56 and 64 days post-operatively, while mechanical threshold was evaluated at 8, 15, 22, 29, 36, 43, 50, 57 and 64 days post-operatively.\nThe inventors evaluated the efficacy of a five month Clonidine/Polymer Drug Depot in the Rat Chronic Constriction Injury Model. The animal model was the Bennett Model (Wistar rat). The purpose: To determine whether a five month polymer clonidine-eluting depot can improve pain associated behavioral responses in a rat model of neuropathic pain.\nExperimental Design: Four loose chromic gut ligatures, 1 mm apart, were tied around the common sciatic nerve at mid-thigh. Each animal received treatment of a test or control article according to the dosing described in Table 5.\nThe inventors have conducted the present study for a period of 64 days and have employed the following two tests: (1) the Hargreaves test; and (2) the von Frey test. […]",
  "data": [
    {"smiles": "Clc1cccc(Cl)c1N=C1NCCN1", "note": "[clonidine, 2,6-dichloro-N-2-imidazolidinyldenebenzenamine]", "values": [
      {"measurement": "pain behavioral response, mechanical threshold (mechanical allodynia), compared to unloaded polymer depots", "value": "reduced the behavioral response"}
    ]}
  ]
}
